Data as given in patent publication US20100113272A1, “HERBICIDAL COMPOSITION AND METHOD OF USE THEREOF” (SYNGENTA CORP PROTECTION, INC., priority 2006, published 2010).

Key:
[1] = system: large crabgrass (Digitaria sanguinalis); experiment: Glasshouse trial, control of large crabgrass, mesotrione and prodiamine spray applied post-emergence; format: in vivo; conditions: for control of large crabgrass on its own: spray post-emergence, 14 DAT
Procedure: A glasshouse trial was carried out. Large crabgrass seeds were sown into standard glasshouse potting mix (1:1 v/v Promix:Vero sand soil) contained in 10 cm square plastic pots. Treatments were replicated three times. Mesotrione (in the form Callisto® 480SE) was applied post-emergence to large crabgrass (Digitaria sanguinalis) at either 12 g ai/ha or 24 g ai/ha with or without prodiamine (in the form Barricade® 4FL). When used, prodiamine was applied at a rate of 210 g ai/ha or 420 g ai/ha. The adjuvant system was X-77 at 0.1% v/v in deionised water. 200 litres of herbicide/adjuvant system was used per hectare. General weed control was evaluated at 7 and 14 days after treatment (DAT). It is noted that all herbicides were applied at reduced field rates because herbicide effects are magnified in a glasshouse environment. Rates were chosen to give a 50 to 70% level of control with herbicides applied alone as this allows for detection of any synergistic effect when tank mixtures are used.
The results were evaluated using the Colby formula. The expected result for (A+B) is (A+B)−(A×B/100) where A and B are the ‘observed’ results for A and B on their own.

large crabgrass = experiment: Glasshouse trial, control of large crabgrass, mesotrione and prodiamine spray applied pre-emergence; format: in vivo, Digitaria sanguinalis; conditions: for control of large crabgrass on its own: spray pre-emergence, 7 DAT
Procedure: A glasshouse trial was carried out. Large crabgrass seeds were sown into standard glasshouse potting mix (1:1 v/v Promix:Vero sand soil) contained in 10 cm square plastic pots. Treatments were replicated three times. Mesotrione (in the form Callisto® 480SE) was applied pre-emergence to large crabgrass at either 12 g ai/ha or 24 g ai/ha with or without prodiamine (in the form Barricade® 4FL). When used, prodiamine was applied at a rate of 53 g ai/ha or 105 g ai/ha. The adjuvant system was X-77 at 0.1% v/v in deionised water. 200 litres of herbicide/adjuvant system was used per hectare. General weed control was evaluated at 7 and 14 days after treatment (DAT).
It is noted that control of large crabgrass with mesotrione alone applied pre-emergence at the higher rate (24 g ai/ha) was high; thus it was not possible to detect synergy when mesotrione was mixed with prodiamine. […] The results were evaluated using the Colby formula. The expected result for (A+B) is (A+B)−(A×B/100) where A and B are the ‘observed’ results for A and B on their own.

SMILES | control of large crabgrass on its own ([1]; prodiamine alone, 210 or 420 g ai/ha) | control of large crabgrass on its own (large crabgrass; prodiamine alone, 105 g ai/ha) [%] | control of large crabgrass on its own ([1]; mesotrione alone at the higher rate (24 g ai/ha)) [%] | control of large crabgrass on its own ([1]; mesotrione alone at the lower rate (12 g ai/ha)) [%] | control of large crabgrass with mesotrione alone ([1]; post-emergence, 7 DAT) | control of large crabgrass on its own (large crabgrass; mesotrione alone, 12 g ai/ha) [%] | control of large crabgrass with mesotrione alone (large crabgrass; pre-emergence at the higher rate (24 g ai/ha))
CCCN(CCC)c1c([N+](=O)[O-])cc(C(F)(F)F)c(N)c1[N+](=O)[O-] [Prodiamine, N^3,N^3-di-n-propyl-2,4-dinitro-6-(trifluoromethyl)-m-phenylenediamine] | no control | 76 | – | – | – | – | –
CS(=O)(=O)c1ccc(C(=O)C2C(=O)CCCC2=O)c([N+](=O)[O-])c1 [Mesotrione, 2-(2′-nitro-4′-methylsulphonylbenzoyl)-1,3-cyclohexanedione] | – | – | 66.7 | 46.7 | relatively high | 50 | high
